Patent publication US20120316106A1, “SYNERGISTIC ANTIBIOTIC COMBINATIONS AND DERIVATIVES” (YEDA RESEARCH AND DEVELOPMENT CO. LTD., priority 2009, published 2012)
Entries after “also recorded” stand apart in the source; their conditions may differ. Read-outs that look alike come from different tables or passages of the source.

Key:
[1] = system: E. coli cell-free transcription-translation system; test: Inhibition of E. coli cell-free transcription-translation (firefly luciferase readout); format: biochemical
Protocol: (§1) To address this question, it was first verified that LM binds to the ribosome and inhibits protein synthesis. […] RNA probing was then utilized to follow the binding of LC and LM to the ribosome. For the consistency of structural data, RNA probing experiments were carried out using D. radiodurans large ribosomal subunits. Binding of LC and LM was analyzed using chemical modifying reagents 1-cyclohexyl-3-(2-morpholinoethyl) carbodiimide metho-p-toluene sulfonate (CMCT) and dimethyl sulfate (DMS).
(§2) Antibiotic binding and inhibition of cell-free translation were determined as described in (Xiong, L. et al., 2005, Antimicrob Agents Chemother 49, 281-288). Inhibition of the peptidyl transferase reaction by LC was performed and analyzed as described in. The data were analyzed using Prism 4 (GraphPad Software). RNA probing was carried out as described in (Moazed, D. and Noller, H. F., 1987, Biochemie 69, 879-884) using D50S.
The E. coli cell-free transcription-translation system for circular DNA (Promega) was pre-incubated with varying concentrations of antibiotics for 5 min at 20° C. The reactions (10 μl final volume) were initiated by adding 0.64 μg of pBestLuc plasmid DNA (Promega). Reactions were incubated for 40 min at 20° C. and stopped by chilling on ice. The activity of firefly luciferase synthesized in the reaction was determined in 96-well plates using Bright-Glo Luciferase Assay System (Promega) as recommended by the manufacturer.

[2] = system: D. radiodurans 50S ribosomal subunits (23S rRNA); test: RNA probing (chemical footprinting) of 23S rRNA with CMCT and DMS; format: binding; conditions: LC 50 μM, LM 500 μM, D50S 200 nM; for Protection of 23S rRNA residues from CMCT modification: ERY 50 μM
Protocol: as §1
Similar to ERY and other 14 member-ring macrolides, binding of LM results in protection of U2609 from CMCT modification and of A2058 and A2059 from DMS chemical modification performed on the 23S rRNA of D. Radiodurans in complex with the combinations of the antibiotics (FIGS. 6C,D). The idiosyncratic protections of 23S rRNA residues were exploited against CMCT modification, afforded by LC and LM, to interrogate their simultaneous interaction with the ribosome. […] However, the accessibility of these residues to CMCT is not affected by LM or ERY (FIG. 6). […] In contrast, and in agreement with the binding experiments, the LC-mediated protection of U2506 and U2585 is partially relieved upon addition of ERY (FIG. 6D) and ERY-dependent protection of U2609 is partly reversed when LC is present. Thus, while LC and ERY compete for the binding to the ribosome, LC and LM can bind simultaneously to their respective targets in the PTC and NPET.
as §2
RNA probing was carried out essentially as described (16, 46) using D. radiodurans 50S ribosomal subunits at 200 nM concentration and antibiotics at the following concentrations: LC—50 μM, LM—500 μM, ERY—50 μM. Prior to addition of the modifying reagents, ribosomal subunits were pre-incubated with the drug 10 min at 37° C. and then 10 min at 20° C.

[3] = target: D. radiodurans 50S subunits; test: Competition with 14C-ERY for binding to 50S subunits; conditions: 0.1 μM 50S, 0.1 μM 14C-erythromycin, FIG. 5C; read-out: IC50, displacement of 14C-ERY from D50S
Excerpt: S. rochei secretes two antibiotics, a 17-member ring macrocyclic LC and a 14-member ring macrolide, lankamycin (LM). LM is structurally similar to ERY (FIG. 1) and thus it was assumed that it is likely to bind to the ribosome at the site and orientation similar to ERY, namely at the NPET in immediate proximity to the PTC, the LC binding site. […] These observations raised the question whether, similarly to ERY, LM would also compete with LC for ribosome binding.
as §2
D. radiodurans 50S subunits (0.1 μM) were preincubated 15 min at 37° C. with 0.1 μM of ^14C-erthromycin (48.8 mCi/mmol, Perkin Elmer) in 100 μl binding buffer (20 mM Tris-HCl, pH 7.5, 10 mM MgCl2, 250 mM NH4Cl, 6 mM β-mercaptoethanol). […] The ribosome-antibiotic complexes were purified by gel filtration in BioGel P30 spin columns as described (Xiong, L. et al. ibid) and the amount of ribosome-bound radioactivity was measured by scintillation counting.

[4] = system: Staphylococcus aureus 70S ribosomes; test: Inhibition of peptidyl transferase (puromycin) reaction, 70S ribosomes; format: biochemical; conditions: S. aureus 70S ribosomes, FIG. 5B; read-out: IC50, inhibition of puromycin reaction (peptide bond formation)
Protocol: as §2
(§3) In the reaction catalyzed by large ribosomal subunits, D. radiodurans 50S subunits (200 nM final concentration) were combined in 50 μl of the reaction buffer (20 mM Tris-HCl, pH 8.0, 20 mM MgCl2, 400 mM KCl) with 28 nM [^3H]-fMet-tRNA, 1 mM puromycism at varying concentrations of LC. Reactions were initiated by addition of 25 μl methanol and incubated on ice for 30 min. Reactions were stopped and analyzed as described (Maguire et al., 2005, Mol Cell 20, 427-435). In the ribosome-based puromycin assay, 70S ribosomes of S. aureus (at a final concentration of 200 nM) were preincubated for 15 min at 37° C. in 50 μl of polyamine buffer (20 mM HEPES-KOH, pH 7.6, 6 mM Mg-acetate, 150 mM NH4Cl, 4 mM β-mercaptoethanol, 2 mM spermidine, 0.05 mM spermine) with 600 nM mRNA AAGGAGAUAAACAAUGGGU and 28 nM [^3H]-fMet-tRNA. After addition of varying concentrations of LC, puromycin was added to the final concentration of 0.5 mM and reactions were incubated for 15 m in at 37° C. […]

Gram-positive bacteria = conditions: background statement; cited from earlier work
[5] = system: eukaryotic cell-free translation; conditions: background statement; cited from earlier work
[6] = target: large ribosomal subunits of D. radiodurans; test: Inhibition of peptidyl transferase (puromycin) reaction, isolated large subunits; format: biochemical; conditions: FIG. 5B, read-out: IC50, inhibition of puromycin reaction (peptide bond formation)
Protocol: as §2, §3

[7] = background statement; cited from earlier work
[8] = Table 2, read-out: [IC50] for antibiotic inhibition of cell free translation
[9] = FIG. 5A / 5D, read-out: IC50, inhibition of bacterial (E. coli) cell-free transcription-translation

Row | SMILES | IC50 [1, 8] [nM] | Protection of 23S rRNA residues from CMCT modification [2] | Protection of 23S rRNA residues from DMS modification [2] | IC50 [1, 9] [nM] | Antibiotic activity against Gram-positive bacteria (Gram-positive bacteria) | further results
1 | CC[C@H]1NC(=O)[C@@H](NC(=O)c2ncccc2O)[C@@H](C)OC(=O)[C@H](c2ccccc2)NC(=O)[C@@H]2CC(=O)CCN2C(=O)[C@H](Cc2ccccc2)N(C)C(=O)[C@@H]2CCCN2C1=O [Virginiamycin S] | 2500 |  |  |  |  | 
2 | CC(=O)C(=O)N[C@@H]1/C=C(C)/C=C/[C@@H](O)C/C=C(C)/C=C/[C@@H](O)C[C@H]2OC(=O)[C@]1(C)C(=O)[C@@H]2C [LC, Lankacidin C] |  | shields U2506 and U2585 from alterations; also recorded: no effect on this nucleotide | A2059 became partially protected from DMS whereas modification of A2058 was increased | 1500 ± 100 | inhibits growth of Gram-positive bacteria | IC50 [3]: 355 ± 26 nM; IC50 [4]: 320 ± 20 nM; Effect on eukaryotic cell-free translation [5]: little effect; IC50 [6]: 10000 ± 6000 nM
3 | CO[C@H]1C[C@@H](C)O[C@@H](O[C@@H]2[C@@H](C)[C@H](O[C@H]3C[C@@](C)(OC)[C@H](OC(C)=O)[C@H](C)O3)[C@@H](C)C(=O)O[C@H]([C@@H](C)[C@H](C)O)[C@H](C)[C@H](OC(C)=O)[C@@H](C)C(=O)[C@@](C)(O)C[C@@H]2C)[C@@H]1O [LM, lankamycin] |  | strongly protect U2609 | protects A2059 and A2058 from DMS modification | 275000 ± 36000 | weak antibiotic activity | Toxicity in animal models [7]: low toxicity
4 | CC[C@H]1OC(=O)[C@H](C)[C@@H](O[C@H]2C[C@@](C)(OC)[C@@H](O)[C@H](C)O2)[C@H](C)[C@@H](O[C@@H]2O[C@H](C)C[C@H](N(C)C)[C@H]2O)[C@](C)(O)C[C@@H](C)C(=O)[C@H](C)[C@@H](O)[C@]1(C)O [ERY, erythromycin, reference compound] | 200 | strongly protect U2609 |  |  |  | 
5 | CC1=C\[C@@H](O)CC(=O)Cc2nc(co2)C(=O)N2CCC=C2C(=O)O[C@H](C(C)C)[C@H](C)/C=C/C(=O)NC\C=C\1 [Virginiamycin M] | 800 |  |  |  |  | 
